# Assays:
# Format in all cases: in vivo
# [1] = test system: pigweed (Amaranthus retroflexus); experiment: Test D postemergence controlled growth environment test
# Description: (§1) Seeds of plant species selected from blackgrass (Alopecurus myosuroides), galium (catchweed bedstraw, Galium aparine), kochia (Kochia scoparia), oilseed rape (Brassica napus), barley, spring (Hordeum vulgare), wheat, spring (Triticum aestivum), oat, wild (Avena fatua), barley, winter (Hordeum vulgare) and wheat, winter (Triticum aestivum) were planted into a silt loam soil and treated preemergence with test chemicals formulated in a non-phytotoxic solvent mixture which included a surfactant.
# (§2) At the same time, plants selected from these crop and weed species and also bluegrass (annual bluegrass, Poa annua), canarygrass (littleseed canarygrass, Phalaris minor), chickweed (common chickweed, Stellaria media), bromegrass, downy (downy bromegrass, Bromus tectorum), field poppy (Papaver rhoeas), field violet (Viola arvensis), foxtail, green (Setaria viridis), deadnettle (henbit deadnettle, Lamium amplexicaule), ryegrass, Italian (Lolium multiflorum), lambsquarters (Chenopodium album), pigweed (Amaranthus retroflexus), chamomile (scentless chamomile, Matricaria inodora), Russian thistle (Salsola kali), speedwell (bird's-eye speedwell, Veronica persica), buckwheat, wild (Polygonum convolvulus), mustard, wild (Sinapis arvensis), radish, wild (Raphanus raphanistrum), windgrass (Apera spica-venti), geranium, cutleaf (Geranium dissectum) and Canada thistle (Cirsium arvense) were planted in pots containing Redi-Earth® planting medium (Scotts Company, 14111 Scottslawn Road, Marysville, Ohio 43041) comprising spaghnum peat moss, vermiculite, wetting agent and starter nutrients and treated with postemergence applications of the test chemicals formulated in the same manner. Plants ranged in height from 2 to 18 cm (1- to 4-leaf stage). Treated plants and controls were maintained in a controlled growth environment for 14 to 21 d after which time all species were compared to controls and visually evaluated. Plant response ratings, summarized in Table D, are based on a scale of 0 to 100 where 0 is no effect and 100 is complete control. A dash (-) response means no test result.
# [2] = test system: foxtail, green (Setaria viridis); experiment: as above
# Description: as §1, §2
# [3] = test system: radish, wild (Raphanus raphanistrum); experiment: as above
# Description: as §1, §2
# [4] = test system: chickweed (common chickweed, Stellaria media); experiment: as above
# Description: as §1, §2
# [5] = test system: deadnettle (henbit deadnettle, Lamium amplexicaule); experiment: as above
# Description: as §1, §2
# [6] = test system: canarygrass (littleseed canarygrass, Phalaris minor); experiment: as above
# Description: as §1, §2
# [7] = test system: buckwheat, wild (Polygonum convolvulus); experiment: as above
# Description: as §1, §2
# [8] = test system: mustard, wild (Sinapis arvensis); experiment: as above
# Description: as §1, §2
# [9] = test system: Russian thistle (Salsola kali); experiment: as above
# Description: as §1, §2
# [10] = test system: speedwell (bird's-eye speedwell, Veronica persica); experiment: as above
# Description: as §1, §2
# [11] = test system: field poppy (Papaver rhoeas); experiment: as above
# Description: as §1, §2
# [12] = test system: field violet (Viola arvensis); experiment: as above
# Description: as §1, §2
# [13] = test system: lambsquarters (Chenopodium album); experiment: as above
# Description: as §1, §2
# [14] = test system: Bulrush, Japanese (Scirpus juncoides); experiment: Test C flooded paddy test; settings: Flood, scale 0 to 100
# Description: Plant species in the flooded paddy test consisted of rice (transplanted and water seeded, Oryza sativa), sedge, umbrella (small-flower umbrella sedge, Cyperus difformis), ducksalad (Heteranthera limosa), Bulrush, Japanese (Scirpus juncoides) and barnyardgrass (Echinochloa crus-galli) grown to the 2-leaf stage for testing. At time of treatment, test pots were flooded to 3 cm above the soil surface, treated by application of test compounds directly to the paddy water, and then maintained at that water depth for the duration of the test. Treated plants and controls were maintained in a greenhouse for 13 to 15 d, after which time all species were compared to controls and visually evaluated. Plant response ratings, summarized in Table C are based on a scale of 0 to 100 where 0 is no effect and 100 is complete control. A dash (-) response means no test result.
structure (smiles),measurement,setting,value
"Cc1ccc2ccc(C)c(-c3c(O)c(Cl)nn(C)c3=O)c2c1 [Cpd. No. 20, 6-chloro-4-(2,7-dimethyl-1-naphthalenyl)-5-hydroxy-2-methyl-3(2H)-pyridazinone]","Plant response rating, Pigweed",[1]; 16 g ai/ha,98
same,"Plant response rating, Pigweed",[1]; 31 g ai/ha,98
same,"Plant response rating, Pigweed",[1]; 62 g ai/ha,100
same,"Plant response rating, Pigweed",[1]; 125 g ai/ha,100
same,"Plant response rating, Foxtail, Green",[2]; 16 g ai/ha,85
same,"Plant response rating, Foxtail, Green",[2]; 31 g ai/ha,90
same,"Plant response rating, Foxtail, Green",[2]; 62 g ai/ha,95
same,"Plant response rating, Foxtail, Green",[2]; 125 g ai/ha,98
same,"Plant response rating, Radish, Wild",[3]; 16 g ai/ha,0
same,"Plant response rating, Radish, Wild",[3]; 31 g ai/ha,0
same,"Plant response rating, Radish, Wild",[3]; 62 g ai/ha,15
same,"Plant response rating, Radish, Wild",[3]; 125 g ai/ha,25
same,"Plant response rating, Chickweed",[4]; 16 g ai/ha,99
same,"Plant response rating, Chickweed",[4]; 31 g ai/ha,99
same,"Plant response rating, Chickweed",[4]; 62 g ai/ha,100
same,"Plant response rating, Chickweed",[4]; 125 g ai/ha,100
same,"Plant response rating, Deadnettle",[5]; 16 g ai/ha,35
same,"Plant response rating, Deadnettle",[5]; 31 g ai/ha,80
same,"Plant response rating, Deadnettle",[5]; 62 g ai/ha,85
same,"Plant response rating, Deadnettle",[5]; 125 g ai/ha,95
same,"Plant response rating, Canarygrass",[6]; 16 g ai/ha,10
same,"Plant response rating, Canarygrass",[6]; 31 g ai/ha,15
same,"Plant response rating, Canarygrass",[6]; 62 g ai/ha,20
same,"Plant response rating, Canarygrass",[6]; 125 g ai/ha,35
same,"Plant response rating, Buckwheat, Wild",[7]; 16 g ai/ha,100
same,"Plant response rating, Buckwheat, Wild",[7]; 31 g ai/ha,98
same,"Plant response rating, Buckwheat, Wild",[7]; 62 g ai/ha,99
same,"Plant response rating, Buckwheat, Wild",[7]; 125 g ai/ha,100
same,"Plant response rating, Mustard, Wild",[8]; 16 g ai/ha,20
same,"Plant response rating, Mustard, Wild",[8]; 31 g ai/ha,25
same,"Plant response rating, Mustard, Wild",[8]; 62 g ai/ha,30
same,"Plant response rating, Mustard, Wild",[8]; 125 g ai/ha,60
same,"Plant response rating, Russian Thistle",[9]; 16 g ai/ha,80
same,"Plant response rating, Russian Thistle",[9]; 31 g ai/ha,75
same,"Plant response rating, Russian Thistle",[9]; 62 g ai/ha,80
same,"Plant response rating, Russian Thistle",[9]; 125 g ai/ha,85
same,"Plant response rating, Speedwell",[10]; 16 g ai/ha,50
same,"Plant response rating, Speedwell",[10]; 31 g ai/ha,60
same,"Plant response rating, Speedwell",[10]; 62 g ai/ha,80
same,"Plant response rating, Speedwell",[10]; 125 g ai/ha,85
same,"Plant response rating, Field Poppy",[11]; 16 g ai/ha,80
same,"Plant response rating, Field Poppy",[11]; 31 g ai/ha,85
same,"Plant response rating, Field Poppy",[11]; 62 g ai/ha,100
same,"Plant response rating, Field Poppy",[11]; 125 g ai/ha,100
same,"Plant response rating, Field Violet",[12]; 16 g ai/ha,80
same,"Plant response rating, Field Violet",[12]; 31 g ai/ha,80
same,"Plant response rating, Field Violet",[12]; 62 g ai/ha,95
same,"Plant response rating, Field Violet",[12]; 125 g ai/ha,95
same,"Plant response rating, Lambsquarters",[13]; 16 g ai/ha,90
same,"Plant response rating, Lambsquarters",[13]; 31 g ai/ha,95
same,"Plant response rating, Lambsquarters",[13]; 62 g ai/ha,90
same,"Plant response rating, Lambsquarters",[13]; 125 g ai/ha,98
Cc1cc(Cl)c2ccccc2c1-c1c(O)c(Cl)nn(C)c1=O [Cpd. No. 65],"Plant response rating, Bulrush, Japanese",[14]; 62 g ai/ha,75
same,"Plant response rating, Bulrush, Japanese",[14]; 125 g ai/ha,90

# — US12435044B2, “Pyridazinone herbicides and pyridazinone intermediates used to prepare a herbicide” (FMC Corporation, priority 2018, dated 2025)
